# Measurements published in patent US12018016B2, “Aryl sulfonyl (hydroxy) piperidines as CCR6 inhibitors” (CHEMOCENTRYX, INC., priority 2021, dated 2024).
# Molecular target: T1, human CCR6 (Homo sapiens, UniProt P51684)
# T1 construct: expressed in transfected cells; host or cells: Ba/F3 cells (mouse pro-B line)
# T1 sequence (P51684 1-374): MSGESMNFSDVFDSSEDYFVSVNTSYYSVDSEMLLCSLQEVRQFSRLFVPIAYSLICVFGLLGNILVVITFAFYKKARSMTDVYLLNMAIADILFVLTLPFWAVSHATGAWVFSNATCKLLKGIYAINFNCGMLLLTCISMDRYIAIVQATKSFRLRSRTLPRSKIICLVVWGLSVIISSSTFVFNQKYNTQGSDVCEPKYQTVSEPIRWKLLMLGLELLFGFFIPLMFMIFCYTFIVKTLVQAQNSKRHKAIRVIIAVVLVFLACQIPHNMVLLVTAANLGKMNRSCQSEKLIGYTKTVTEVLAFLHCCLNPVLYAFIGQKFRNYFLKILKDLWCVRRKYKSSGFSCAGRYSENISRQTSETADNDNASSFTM
# Test: Migration assay (chemotaxis, ChemoTX)
# Type: cell-based
# Conditions: hCCR6-transfected Ba/F3 cells in human serum, migration to recombinant human CCL20 10 nM, 37° C. 45 minutes; read-out: Potency (IC50 value in the migration assay)
# Excerpt: A chemotaxis assay can be used to determine the efficacy of potential receptor antagonists at blocking the migration mediated through chemokine receptors, such as CCR6. This assay is routinely performed using the ChemoTX® microchamber system with a 5-μm pore-sized polycarbonate membrane. Chemokine receptor-expressing cells are required for such an assay. In this case, Ba/F3 cells (Palacios et al., Nature, 309:126, 1984) transfected with the gene for human CCR6 under control of the CMV promotor were used. To begin such an assay, hCCR6-transfected Ba/F3 cells are first grown for 24 hr in medium supplemented with sodium butyrate, which increases CCR6 transcription via the CMV promotor. The prepared Ba/F3 cells, are collected by centrifugation at 400×g at room temperature, then suspended at 4 million/ml in human serum. The compound being tested is serially diluted from a maximum final concentration of 1 μM (or an equivalent volume of its solvent (DMSO)) and is then added to the cell/serum mixture. Separately, recombinant human CCL20 (MIP-3α/LARC) at its EC50 concentration (10 nM) is placed in the lower wells of the ChemoTX® plate. The 5-μm (pore size) polycarbonate membrane is placed onto the plate, and 20 μL of the cell/compound mixture is transferred onto each well of the membrane. The plates are incubated at 37° C. for 45 minutes, after which the polycarbonate membranes are removed and 5 μl of the DNA-intercalating dye CyQUANT (Invitrogen, Carlsbad, CA) is added to the lower wells. The amount of fluorescence, corresponding to the number of migrated cells, is measured using a Spectrafluor Plus plate reader (TECAN, San Jose, CA).
row,IC50 [nM],Compound
1,< 1,"Nc1nnc2ccc(-c3ccc(S(=O)(=O)N4CC[C@@H](Nc5ccc(C(F)(F)F)cn5)[C@@H](O)C4)cc3)cn12 [Example 13, (3S,4R)-1-((4-(3-amino-[1,2,4]triazolo[4,3-a]pyridin-6-yl)phenyl)sulfonyl)-4-((5-(trifluoromethyl)pyridin-2-yl)amino)piperidin-3-ol]"
2,< 1,Cc1cnc(C(N)=O)c(C)c1-c1ccc(S(=O)(=O)N2CC[C@@H](Nc3ccc(C(F)(F)F)cn3)[C@@H](O)C2)cc1 [Compound 204]
3,< 1,"O=c1[nH]c2cc(-c3ccc(S(=O)(=O)N4CC[C@@H](Nc5ccc(C(F)(F)F)cn5)[C@@H](O)C4)cc3)cnc2[nH]1 [Example 54, 6-(4-(((3S,4R)-3-hydroxy-4-((5-(trifluoromethyl)pyridin-2-yl)amino)piperidin-1-yl)sulfonyl)phenyl)-1,3-dihydro-2H-imidazo[4,5-b]pyridin-2-one]"
4,< 1,"Cc1nc2[nH]ccc2c(C)c1-c1ccc(S(=O)(=O)N2CC[C@@H](Nc3ccc(C(F)(F)F)cn3)[C@@H](O)C2)cc1 [Example 45, (3S,4R)-1-((4-(4,6-dimethyl-1H-pyrrolo[2,3-b]pyridin-5-yl)phenyl)sulfonyl)-4-((5-(trifluoromethyl)pyridin-2-yl)amino)piperidin-3-ol]"
5,< 1,Cc1cc(-c2ccc(S(=O)(=O)N3CC[C@@H](Nc4ccc(C(F)(F)F)cn4)[C@@H](O)C3)cc2)cc(C(N)=O)n1 [Compound 206]
6,1 to 10,O=S(=O)(c1ccc(-c2ccc(N3CCCCC3)nc2)cc1)N1CC[C@@H](Nc2ccc(C(F)(F)F)cn2)[C@@H](O)C1 [Compound 109]
7,< 1,"Nc1n[nH]c2ncc(-c3ccc(S(=O)(=O)N4CC[C@@H](Nc5ccc(C(F)(F)F)cn5)[C@@H](O)C4)cc3)cc12 [Example 38, (3S,4R)-1-((4-(3-amino-1H-pyrazolo[3,4-b]pyridin-5-yl)phenyl)sulfonyl)-4-((5-(trifluoromethyl)pyridin-2-yl)amino)piperidin-3-ol]"
8,< 1,"Cc1cc(C(F)(F)F)cnc1N[C@@H]1CCN(S(=O)(=O)c2ccc(-c3ccnc(C(N)=O)c3)cc2)C[C@@H]1O [Compound 82, 4-[4-[[(3S,4R)-3-hydroxy-4-[[3-methyl-5-(trifluoromethyl)-2-pyridyl]amino]-1-piperidyl]sulfonyl]phenyl]pyridine-2-carboxamide]"
9,< 1,"Cc1c(-c2ccc(S(=O)(=O)N3CC[C@@H](Nc4ccc(C(F)(F)F)cn4)[C@@H](O)C3)cc2)cnc2[nH]ccc12 [Example 60, (3S,4R)-1-((4-(4-methyl-1H-pyrrolo[2,3-b]pyridin-5-yl)phenyl)sulfonyl)-4-((5-(trifluoromethyl)pyridin-2-yl)amino)piperidin-3-ol]"
10,< 1,O=S(=O)(c1ccc(-c2cnnc(N3CCOCC3)c2)cc1)N1CC[C@@H](Nc2ccc(C(F)(F)F)cn2)[C@@H](O)C1 [Compound 200]
11,< 1,"N#Cc1cc(-c2ccc(S(=O)(=O)N3CC[C@@H](Nc4ccc(C(F)(F)F)cn4)[C@@H](O)C3)cc2)ccn1 [Example 57, 4-(4-(((3S,4R)-3-hydroxy-4-((5-(trifluoromethyl)pyridin-2-yl)amino)piperidin-1-yl)sulfonyl)phenyl)picolinonitrile]"
12,< 1,"O=C1Cc2ccc(-c3ccc(S(=O)(=O)N4CC[C@@H](Nc5ccc(C(F)(F)F)cn5)[C@@H](O)C4)cc3)cc2CN1 [Example 8, 7-(4-(((3S,4R)-3-hydroxy-4-((5-(trifluoromethyl)pyridin-2-yl)amino)piperidin-1-yl)sulfonyl)phenyl)-1,4-dihydroisoquinolin-3(2H)-one]"
13,< 1,Cc1cc(-c2ccc(S(=O)(=O)N3CC[C@@H](Nc4ccc(C(F)(F)F)cn4)[C@@H](O)C3)cc2)cc2c(C#N)nn(C)c12 [Compound 121]
14,< 1,CN(C)c1cncc(-c2ccc(S(=O)(=O)N3CC[C@@H](Nc4ccc(C(F)(F)F)cn4)[C@@H](O)C3)cc2)c1 [Compound 111]
15,< 1,NC(=O)c1cc(-c2ccc(S(=O)(=O)N3CC[C@@H](Nc4ccc(C(F)(F)F)cn4)[C@@H](O)C3)cc2)cc(O)n1 [Compound 203]
16,< 1,Cc1ccnc(C)c1-c1ccc(S(=O)(=O)N2CC[C@@H](Nc3ccc(C(F)(F)F)cn3)[C@@H](O)C2)cc1 [Compound 116]
17,< 1,N[C@H]1C[C@@H](Nc2ccc(-c3ccc(S(=O)(=O)N4CC[C@@H](Nc5ccc(C(F)(F)F)cn5)[C@@H](O)C4)cc3)cn2)C1 [Compound 97]
18,< 1,Nc1cncc(-c2ccc(S(=O)(=O)N3CC[C@@H](Nc4ccc(C(F)(F)F)cn4)[C@@H](O)C3)cc2)c1 [Compound 110]

row,IC50 [nM],Compound
1,< 1,Cc1cncc(C)c1-c1ccc(S(=O)(=O)N2CC[C@@H](Nc3ccc(C(F)(F)F)cn3)[C@@H](O)C2)cc1 [Compound 185]
2,< 1,O=S(=O)(c1ccc(-c2ccnc(N3CC[C@H](O)C3)c2)cc1)N1CC[C@@H](Nc2ccc(C(F)(F)F)cn2)[C@@H](O)C1 [Compound 133]
3,1 to 10,CN(C)[C@H]1C[C@H](Nc2ccc(-c3ccc(S(=O)(=O)N4CC[C@@H](Nc5ccc(C(F)(F)F)cn5)[C@@H](O)C4)cc3)cn2)C1 [Compound 91]
4,< 1,"Cc1nc(-c2cc(-c3ccc(S(=O)(=O)N4CC[C@@H](Nc5ccc(C(F)(F)F)cn5)[C@@H](O)C4)cc3)ccn2)no1 [Compound 67, (3S,4R)-1-((4-(2-(5-methyl-1,2,4-oxadiazol-3-yl)pyridin-4-yl)phenyl)sulfonyl)-4-((5-(trifluoromethyl)pyridin-2-yl)amino)piperidin-3-ol]"
5,1 to 10,"O=S(=O)(c1ccc(-c2ccnc(CO)c2)cc1)N1CC[C@@H](Nc2ccc(C(F)(F)F)cn2)[C@@H](O)C1 [Example 10, (3S,4R)-1-((4-(2-(hydroxymethyl)pyridin-4-yl)phenyl)sulfonyl)-4-((5-(trifluoromethyl)pyridin-2-yl)amino)piperidin-3-ol]"
6,< 1,N[C@H]1C[C@H](Nc2cc(-c3ccc(S(=O)(=O)N4CC[C@@H](Nc5ccc(C(F)(F)F)cn5)[C@@H](O)C4)cc3)ccn2)C1 [Compound 128]
7,1 to 10,COc1cnccc1-c1ccc(S(=O)(=O)N2CC[C@@H](Nc3ccc(C(F)(F)F)cn3)[C@@H](O)C2)cc1 [Compound 151]
8,1 to 10,COC1CN(c2ccc(-c3ccc(S(=O)(=O)N4CC[C@@H](Nc5ccc(C(F)(F)F)cn5)[C@@H](O)C4)cc3)cn2)C1 [Compound 95]
9,< 1,"O=c1[nH]ncc2cc(-c3ccc(S(=O)(=O)N4CC[C@@H](Nc5ccc(C(F)(F)F)cn5)[C@@H](O)C4)cc3)ccc12 [Example 5, 6-(4-(((3S,4R)-3-hydroxy-4-((5-(trifluoromethyl)pyridin-2-yl)amino)piperidin-1-yl)sulfonyl)phenyl)phthalazin-1(2H)-one]"
10,1 to 10,Nc1cc(-c2ccc(S(=O)(=O)N3CC[C@@H](Nc4ccc(C(F)(F)F)cn4)[C@@H](O)C3)cc2)ccn1 [Compound 126]
11,< 1,CNC(=O)N1Cc2ccc(-c3ccc(S(=O)(=O)N4CC[C@@H](Nc5ccc(C(F)(F)F)cn5)[C@@H](O)C4)cc3)cc2C1 [Compound 187]
12,1 to 10,O=S(=O)(c1ccc(-c2ccncc2CO)cc1)N1CC[C@@H](Nc2ccc(C(F)(F)F)cn2)[C@@H](O)C1 [Compound 153]
13,< 1,"Nc1nnc(-c2cc(-c3ccc(S(=O)(=O)N4CC[C@@H](Nc5ccc(C(F)(F)F)cn5)[C@@H](O)C4)cc3)ccn2)o1 [Compound 69, (3S,4R)-1-((4-(2-(5-amino-1,3,4-oxadiazol-2-yl)pyridin-4-yl)phenyl)sulfonyl)-4-((5-(trifluoromethyl)pyridin-2-yl)amino)piperidin-3-ol]"
14,10 to 1000,CN1CCN(c2cc(-c3ccc(S(=O)(=O)N4CC[C@@H](Nc5ccc(C(F)(F)F)cn5)[C@@H](O)C4)cc3)ccn2)CC1 [Compound 113]
15,< 1,Cc1cc(-c2ccc(S(=O)(=O)N3CC[C@@H](Nc4ccc(C(F)(F)F)cn4)[C@@H](O)C3)cc2)cc2cnn(C)c12 [Compound 123]
16,< 1,"Nc1n[nH]c2cc(-c3ccc(S(=O)(=O)N4CC[C@@H](Nc5ccc(C(F)(F)F)cn5)[C@@H](O)C4)cc3)ccc12 [Example 55, (3S,4R)-1-((4-(3-amino-1H-indazol-6-yl)phenyl)sulfonyl)-4-((5-(trifluoromethyl)pyridin-2-yl)amino)piperidin-3-ol]"
17,10 to 1000,CN(C)CCN(C)c1ccc(-c2ccc(S(=O)(=O)N3CC[C@@H](Nc4ccc(C(F)(F)F)cn4)[C@@H](O)C3)cc2)cn1 [Compound 101]
